Here are results for 1 compound from patent US8710097B2, “Flavonoid dimers and methods of making and using such” (The Hong Kong Polytechnic University, priority 2006, dated 2014).

“And” between values parts separate entries of the source, which are not always exact repeats. Equal entries are not always repeated.

One series concerns MDA435/LCC6 MDR cells. The series is described as follows: Doxorubicin accumulation. In kind it is cell-based, human. As to the method: Doxorubicin accumulation. 2.5 ml (10^5 cells/ml) MDA435/LCC6 (both parent and MDR subtype) cells were seeded in each well of 6-well plates. At confluence, culture medium was removed. 2 ml of fresh DMEM with modulators was added and cells were incubated for 30 min at 37° C. Doxorubicin (final concentration of 20 μM) was then added and incubated for 2 h at 37° C. The cells were then harvested by trypsinization.
For P388 (both parent and MDR subtype) cells, 1 ml (10^5 cells) confluent cells were aliquot into Eppendorf tube and pre-incubated with flavone dimers for 30 min at 37° C. Doxorubicin (final concentration of 10 μM) was then added and incubated for 2 h at 37° C. at a final concentration of 10 μM. The cell pellets were washed 3 times with cold PBS by using an Eppendorf micro-centrifuge and lysed with 0.3N HCL in 50% ethanol, and sonicated for 30s. After centrifugation at 10000 rpm/min for 3 min, the supernatant was saved. The fluorescence of doxorubicin was measured using a spectrofluorometer (λexcite=470 nm, λemit=585 nm).
In order to understand whether the modulating activity for various anticancer drugs by different dimers is due to their different ability to modulate P-gp mediated drug efflux, their effects on the accumulation of doxorubicin in both MDA435/LCC6 sensitive and resistant cells were investigated. Doxorubicin was a fluorescent drug substrate of P-gp and was used in this experiment to monitor the P-gp mediated drug efflux. Accumulation of doxorubicin in these cells was determined in the presence or absence of apigenin dimers (10 μM) and monomer (20 μM). Verapamil was used as a positive control.

The test system of the next series is LePentR50 promastigotes. The series can be described thus: Pentamidine accumulation assay by HPLC. In kind it is cell-based, Leishmania enriettii. The note with it: 0.84 mM pentamidine, 3 hr. On the procedure:
The effect of flavonoid dimers on accumulation of pentamidine was investigated. […] After 3 hrs of incubation, the parasites were washed three times with cold PBS, pH 7.4. The cell pellet was then dissolved in 350 μL 75% acetonitrile and lysed by repeated freeze-thaw cycles. After lysing, the lysed cell suspension was centrifuged at 14,000 g at 4° C. for 10 min. The supernatant was collected and ready for determining pentamidine concentration using HPLC (Agilent 1100 Series). The pentamidine pools were analyzed on Zorbax ODS C18 column (4.6 mm×25 cm, 5-micron) kept at 40° C. The mobile phase consisted of water (10 mM tetramethylammonium chloride (TMAC), 10 mM sodium heptanesulphonate (SHS), 4.2 mM phosphoric acid (PA)) for pump A and 75% acetonitrile (ACN) in water (10 mM TMAC, 10 mM SHS, 4.2 mM PA) for pump B. The column was equilibrated at 40° C. overnight before analyses. Using a flow rate of 1.0 mL/min and signal at 265 nm, analyses were made at 58% pump A and 42% pump B. The retention time of pentamidine is 3.2 min. Compound 9d would not be eluted out under these conditions. To generate a standard curve, a 200 μM stock solution of pentamidine isethionate salt were prepared by dissolving 2.5 mg pentamidine isethionate salt in 21 mL 75% ACN (10 mM TMAC, 10 mM SHS, 4.2 mM PA). Concentration of 100, 50, 25 and 13 μM were then made by serial dilution, allowing the generation of standard curve.

For series [1], the system named is wild type L. donovani LdAG83 promastigotes. The series is described as follows: Leishmania cell viability (MTS) assay. Type of series: cell-based, Leishmania donovani.
Series [2] relates to pentamidine-resistant L. enriettii LePentR50 promastigotes. The series can be described thus: microbe, parasite or virus in culture.
Series [3] deals with wild type L. enriettii (Le). The series can be described thus: Leishmania cell viability (MTS) assay. The note with it: Le wild type. In kind it is cell-based, Leishmania enriettii. On the procedure: Cell lines and Cell Culture. Promastigotes of Leishmania enriettii (LePentR50, Le wild type, LeMDR1 −/− and LeMDR1-overexpressed LeV160 mutants) and Leishmania donovani (LdAG83, Ld2001 and Ld39) were employed in this study. The former is a natural infective strain of guinea pig and the latter is a clinical strain, which may cause visceral leishmaniasis in human. Both strains were cultured in Schneider's Drosophila Medium (Invitrogen), pH 6.9 supplemented with 10% (v/v) heat inactivated fetal calf serum (Hyclone) with 4 mM glutamine (Sigma) and 25 μg/mL gentamicin solution (Invitrogen), at 27° C. for 4 days (Cloning and functional analysis of an extrachromosomally amplified multidrug resistance-like gene in Leishmania enriettii. Mol. Biochem. Parasitol 1993, 60, 195-208).
Promastigotes of LeV160 were culture in the presence of 160 μg/mL vinblastine. No pentamidine and vinblastine (Sigma) was added to the Le wild type and LeMDR1 −/− mutant.
The viability of promastigotes was determined by the Cell Titer 96® Aqueous Assay (Promega) that employs a tetrazolium compound (MTS) and electron coupling reagent, phenazine methosulfate (PMS). Promastigotes were seeded into 96-well flat bottom microtiter plate at 1×10^5 cells per well in a final volume of 100 μL medium. To determine the cytotoxic effects of flavonoid dimers to the parasites, various concentrations of flavonoid dimers were added to the promastigotes. To determine the reversal effects of flavonoid dimers with different spacer lengths, various concentrations of antileishmanial drugs, one of pentamidine or SSG, vinblastine and puromycin was added to the wells with or without flavonoid dimers. The parasites were incubated at 27° C. for 72 hrs. Each concentration of antileishmanials with or without the flavonoid dimers was tested in triplicates in each experiment. A 2 mg/mL MTS and 0.92 mg/mL PMS were mixed at a ratio of 20:1 (MTS: PMS). […] After 4 hrs of incubation, the OD values were determined at 490 nm using automatic microtiter plate reader (Bio-Rad).

Regarding `O=c1cc(-c2ccc(OCCOCCOCCOCCOc3ccc(-c4cc(=O)c5c(O)cc(O)cc5o4)cc3)cc2)oc2cc(O)cc(O)c12` [Compound 9d, 1,13-Bis[4′-((5,7-dihydroxy)-4H-chromen-4-on-2-yl)phenyl]-1,4,7,10,13-pentaoxamidecane], the “doxorubicin accumulation relative to 9d-treated LCC6 cells” value in the series with MDA435/LCC6 MDR cells (LCC6 MDR, 10 μM 9d) is recorded as 97%. The “enhancement of doxorubicin accumulation, folds of control” value with MDA435/LCC6 MDR cells (LCC6 MDR, apigenin dimers 10 μM, 20 μM doxorubicin, 2 h) is 5.8 folds and 4 folds. Further, the “intracellular doxorubicin concentration, % of the LCC6” value with MDA435/LCC6 MDR cells (MDA435/LCC6 MDR, 10 μM 9d, FIG. 7B) was determined as 88%. The intracellular pentamidine concentration in the series with LePentR50 promastigotes (15 μM 9d) is given as 2.95±0.01 μM pentamidine/mg protein; in the series with LePentR50 promastigotes (30 μM 9d), 4.69±0.51 μM pentamidine/mg protein; in the series on LePentR50 promastigotes (60 μM 9d), 26.6±0.6 μM pentamidine/mg protein. The “modulating effect on SSG sensitivity” value in series [1] (LdAG83, up to 6 μM, FIG. 17C) was “did not have any modulating effect”. Moreover, the “modulatory effect on SSG sensitivity” value in series [1] (SSG-sensitive wild type LdAG83, FIG. 14D) is “no modulatory effect”. The concentration for half-maximal inhibition (IC50) was 7 ± 0.4 µM in series [1] (cytotoxicity of compound alone, 72 hrs, read-out: IC50(μM) of synthetic flavonoid, LdAG83) and more than 200 µM in series [2] (read-out: IC50(μM) of synthetic flavonoid, LePentR50, cytotoxicity of compound alone, 72 hrs). Also, the “cytotoxicity under accumulation conditions” value in series [2] (LePentR50, 60 μM 9d, 3 hours, data not shown) is “did not result in any cytotoxicity”. Also, the pentamidine sensitization in series [2] (LePentR50, FIG. 18A) is on record as approximately 3.7 fold. The “toxicity of modulator alone” value in series [2] (LePentR50, up to 6 μM) is on record as “No toxicity”. Besides, the EC50 in series [2] (read-out: EC50 (concentration resulting in 50% survival of LePentR50 at 60 μg/ml pentamidine), co-treatment with 60 μg/ml pentamidine, FIG. 15) was approximately 0.94 µM. Besides, the “decrease of IC50 of pentamidine” value in series [3] is recorded as “about 3 fold”.

As a reminder, the IC50 is the concentration at which inhibition is half-maximal.
